Data as given in patent US11198713B2, “Agents modulating beta-catenin functions and methods thereof” (FOG PHARMACEUTICALS, INC., priority 2017, dated 2021).

Molecular target: T1, full-length beta-catenin (Axin site) (Homo sapiens, UniProt P35222)
T1 construct: 15 nM full-length beta-catenin, 20 nM FITC labeled peptide in buffer
T1 sequence (P35222 1-781): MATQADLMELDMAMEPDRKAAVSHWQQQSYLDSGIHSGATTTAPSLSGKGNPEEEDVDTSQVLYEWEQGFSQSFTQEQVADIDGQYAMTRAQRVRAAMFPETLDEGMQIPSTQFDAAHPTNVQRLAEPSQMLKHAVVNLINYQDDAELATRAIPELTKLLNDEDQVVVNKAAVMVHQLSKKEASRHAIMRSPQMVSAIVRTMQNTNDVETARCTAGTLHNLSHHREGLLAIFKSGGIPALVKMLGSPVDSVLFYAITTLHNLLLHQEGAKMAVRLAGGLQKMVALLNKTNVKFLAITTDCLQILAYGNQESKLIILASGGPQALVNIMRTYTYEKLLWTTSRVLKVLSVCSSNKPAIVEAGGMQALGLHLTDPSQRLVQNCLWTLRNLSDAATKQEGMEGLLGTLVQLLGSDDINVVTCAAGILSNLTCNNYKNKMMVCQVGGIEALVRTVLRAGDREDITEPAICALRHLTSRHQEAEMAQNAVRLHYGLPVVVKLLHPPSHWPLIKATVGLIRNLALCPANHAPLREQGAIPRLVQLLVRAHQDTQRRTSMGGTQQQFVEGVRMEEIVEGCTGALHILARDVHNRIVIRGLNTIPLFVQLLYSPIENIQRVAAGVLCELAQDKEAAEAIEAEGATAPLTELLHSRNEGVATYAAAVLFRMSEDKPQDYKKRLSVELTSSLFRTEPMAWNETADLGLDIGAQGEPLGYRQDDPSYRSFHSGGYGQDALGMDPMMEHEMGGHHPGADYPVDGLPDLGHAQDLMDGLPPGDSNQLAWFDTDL
Test: Competition fluorescence polarization assay (Axin site probe)
Format: binding
Conditions: competition with FITC labeled Axin-site probe, 15 nM full-length beta-catenin; read-out: FP EC50
Summary of the method: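 Competition FP: 15 nM full-length β-catenin pre-incubated 5 min with 20 nM FITC-labelled stapled Axin-site peptide, then titrated peptide added (3-fold series from 5 μM) for 15 min in the dark. Buffer 50 mM Tris pH 8.0, 250 mM NaCl, 2% glycerol, 0.5 mM EDTA; duplicate reads.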

Structure (SMILES)	EC50 [nM]
CC[C@H](C)[C@@H]1NC(=O)[C@@](C)(NC(=O)[C@H](CCC(N)=O)NC(=O)[C@@H]2CCCN2C(C)=O)CCCC=CCN2CC(C(=O)N[C@@H](Cc3c[nH]cn3)C(=O)N[C@H](C(=O)N[C@@H](CCCNC(=N)N)C(=O)N[C@@H](CCCNC(=N)N)C(=O)N[C@H](C(=O)N[C@@H](Cc3c[nH]c4ccccc34)C(=O)N[C@@H](CCCNC(=N)N)C(N)=O)C(C)C)C(C)C)(C2)NC(=O)[C@H](CC(=O)O)NC(=O)[C@H](CC(C)C)NC1=O (single isomer, unassigned) [FP-0734, Ac-P-Q-S5-I-L-D-Az-H-V-R-R-V-W-R-NH2]	> 5000
CC[C@H](C)[C@@H]1NC(=O)[C@@](C)(NC(=O)[C@H](CCC(N)=O)NC(=O)[C@@H]2CCCN2C(C)=O)CCCC=CCOC(=O)N2CC(C(=O)N[C@@H](Cc3c[nH]cn3)C(=O)N[C@H](C(=O)N[C@@H](CCCNC(=N)N)C(=O)N[C@@H](CCCNC(=N)N)C(=O)N[C@H](C(=O)N[C@@H](Cc3c[nH]c4ccccc34)C(=O)N[C@@H](CCCNC(=N)N)C(N)=O)C(C)C)C(C)C)(C2)NC(=O)[C@H](CC(=O)O)NC(=O)[C@H](CC(C)C)NC1=O (single isomer, unassigned) [FP-0734c, Ac-P-Q-S5-I-L-D-Az-H-V-R-R-V-W-R-NH2]	> 5000
CC[C@H](C)[C@@H]1NC(=O)[C@@](C)(NC(=O)[C@H](CCC(N)=O)NC(=O)[C@@H]2CCCN2C(C)=O)CCCCCC=CCN2CC(C(=O)N[C@@H](Cc3c[nH]cn3)C(=O)N[C@H](C(=O)N[C@@H](CCCNC(=N)N)C(=O)N[C@@H](CCCNC(=N)N)C(=O)N[C@H](C(=O)N[C@@H](Cc3c[nH]c4ccccc34)C(=O)N[C@@H](CCCNC(=N)N)C(N)=O)C(C)C)C(C)C)(C2)NC(=O)[C@H](CC(=O)O)NC(=O)[C@H](CC(C)C)NC1=O (single isomer, unassigned) [FP-0738, Ac-P-Q-S7-I-L-D-Az-H-V-R-R-V-W-R-NH2]	200
CC[C@H](C)[C@@H]1NC(=O)[C@@](C)(NC(=O)[C@H](CCC(N)=O)NC(=O)[C@@H]2CCCN2C(C)=O)CCCCCC=CCOC(=O)N2CC(C(=O)N[C@@H](Cc3c[nH]cn3)C(=O)N[C@H](C(=O)N[C@@H](CCCNC(=N)N)C(=O)N[C@@H](CCCNC(=N)N)C(=O)N[C@H](C(=O)N[C@@H](Cc3c[nH]c4ccccc34)C(=O)N[C@@H](CCCNC(=N)N)C(N)=O)C(C)C)C(C)C)(C2)NC(=O)[C@H](CC(=O)O)NC(=O)[C@H](CC(C)C)NC1=O (single isomer, unassigned) [FP-0738c, Ac-P-Q-S7-I-L-D-Az-H-V-R-R-V-W-R-NH2]	1800
CC[C@H](C)[C@@H]1NC(=O)[C@@]2(NC(=O)[C@H](CCC(N)=O)NC(=O)[C@@H]3CCCN3C(C)=O)CCN(CC=CCCC[C@](C)(C(=O)N[C@@H](Cc3c[nH]cn3)C(=O)N[C@H](C(=O)N[C@@H](CCCNC(=N)N)C(=O)N[C@@H](CCCNC(=N)N)C(=O)N[C@H](C(=O)N[C@@H](Cc3c[nH]c4ccccc34)C(=O)N[C@@H](CCCNC(=N)N)C(N)=O)C(C)C)C(C)C)NC(=O)[C@H](CC(=O)O)NC(=O)[C@H](CC(C)C)NC1=O)C2 (single isomer, unassigned) [FP-0743, Ac-P-Q-PR-I-L-D-R5-H-V-R-R-V-W-R-NH2]	> 5000
CC[C@H](C)[C@@H]1NC(=O)[C@@]2(NC(=O)[C@H](CCC(N)=O)NC(=O)[C@@H]3CCCN3C(C)=O)CCN(C2)C(=O)OCC=CCCCC[C@](C)(C(=O)N[C@@H](Cc2c[nH]cn2)C(=O)N[C@H](C(=O)N[C@@H](CCCNC(=N)N)C(=O)N[C@@H](CCCNC(=N)N)C(=O)N[C@H](C(=O)N[C@@H](Cc2c[nH]c3ccccc23)C(=O)N[C@@H](CCCNC(=N)N)C(N)=O)C(C)C)C(C)C)NC(=O)[C@H](CC(=O)O)NC(=O)[C@H](CC(C)C)NC1=O (single isomer, unassigned) [FP-0745c, Ac-P-Q-PR-I-L-D-R6-H-V-R-R-V-W-R-NN2]	110
CC[C@H](C)[C@@H]1NC(=O)[C@]2(NC(=O)[C@H](CCC(N)=O)NC(=O)[C@@H]3CCCN3C(C)=O)CCN(CC=CCCC[C@@](C)(C(=O)N[C@@H](Cc3c[nH]cn3)C(=O)N[C@H](C(=O)N[C@@H](CCCNC(=N)N)C(=O)N[C@@H](CCCNC(=N)N)C(=O)N[C@H](C(=O)N[C@@H](Cc3c[nH]c4ccccc34)C(=O)N[C@@H](CCCNC(=N)N)C(N)=O)C(C)C)C(C)C)NC(=O)[C@H](CC(=O)O)NC(=O)[C@H](CC(C)C)NC1=O)C2 (single isomer, unassigned) [FP-0751, Ac-P-Q-PS-I-L-D-S5-H-V-R-R-V-W-R-NH2]	> 5000
CC[C@H](C)[C@@H]1NC(=O)[C@]2(NC(=O)[C@H](CCC(N)=O)NC(=O)[C@@H]3CCCN3C(C)=O)CCN(CC=CCCCCC[C@@](C)(C(=O)N[C@@H](Cc3c[nH]cn3)C(=O)N[C@H](C(=O)N[C@@H](CCCNC(=N)N)C(=O)N[C@@H](CCCNC(=N)N)C(=O)N[C@H](C(=O)N[C@@H](Cc3c[nH]c4ccccc34)C(=O)N[C@@H](CCCNC(=N)N)C(N)=O)C(C)C)C(C)C)NC(=O)[C@H](CC(=O)O)NC(=O)[C@H](CC(C)C)NC1=O)C2 (single isomer, unassigned) [FP-0753, Ac-P-Q-PS-I-L-D-S7-H-V-R-R-V-W-R-NH2]	> 5000

Further lines, results first:

EC50 [nM]	Structure (SMILES)
> 5000	CC[C@H](C)[C@@H]1NC(=O)[C@](C)(NC(=O)[C@H](CCC(N)=O)NC(=O)[C@@H]2CCCN2C(C)=O)CCCC=CCN2CC[C@@](C(=O)N[C@@H](Cc3c[nH]cn3)C(=O)N[C@H](C(=O)N[C@@H](CCCNC(=N)N)C(=O)N[C@@H](CCCNC(=N)N)C(=O)N[C@H](C(=O)N[C@@H](Cc3c[nH]c4ccccc34)C(=O)N[C@@H](CCCNC(=N)N)C(N)=O)C(C)C)C(C)C)(C2)NC(=O)[C@H](CC(=O)O)NC(=O)[C@H](CC(C)C)NC1=O (single isomer, unassigned) [FP-0758, Ac-P-Q-R5-I-L-D-PS-H-V-R-R-V-W-R-NH2]
110	CC[C@H](C)[C@@H]1NC(=O)[C@](C)(NC(=O)[C@H](CCC(N)=O)NC(=O)[C@@H]2CCCN2C(C)=O)CCCCC=CCOC(=O)N2CC[C@](C(=O)N[C@@H](Cc3c[nH]cn3)C(=O)N[C@H](C(=O)N[C@@H](CCCNC(=N)N)C(=O)N[C@@H](CCCNC(=N)N)C(=O)N[C@H](C(=O)N[C@@H](Cc3c[nH]c4ccccc34)C(=O)N[C@@H](CCCNC(=N)N)C(N)=O)C(C)C)C(C)C)(C2)NC(=O)[C@H](CC(=O)O)NC(=O)[C@H](CC(C)C)NC1=O (single isomer, unassigned) [FP-0767c, Ac-P-Q-R6-I-L-D-PR-H-V-R-R-V-W-R-NH2]
> 5000	CC[C@H](C)[C@@H]1NC(=O)[C@](C)(NC(=O)[C@H](CCC(N)=O)NC(=O)[C@@H]2CCCN2C(C)=O)CCCCCC=CCN2CC[C@](C(=O)N[C@@H](Cc3c[nH]cn3)C(=O)N[C@H](C(=O)N[C@@H](CCCNC(=N)N)C(=O)N[C@@H](CCCNC(=N)N)C(=O)N[C@H](C(=O)N[C@@H](Cc3c[nH]c4ccccc34)C(=O)N[C@@H](CCCNC(=N)N)C(N)=O)C(C)C)C(C)C)(C2)NC(=O)[C@H](CC(=O)O)NC(=O)[C@H](CC(C)C)NC1=O (single isomer, unassigned) [FP-0768, Ac-P-Q-R7-I-L-D-PR-H-V-R-R-V-W-R-NH2]
580	CC[C@H](C)[C@@H]1NC(=O)[C@](C)(NC(=O)[C@H](CCC(N)=O)NC(=O)[C@@H]2CCCN2C(C)=O)CCCC=CCN(C)CC[C@](C)(C(=O)N[C@@H](Cc2c[nH]cn2)C(=O)N[C@H](C(=O)N[C@@H](CCCNC(=N)N)C(=O)N[C@@H](CCCNC(=N)N)C(=O)N[C@H](C(=O)N[C@@H](Cc2c[nH]c3ccccc23)C(=O)N[C@@H](CCCNC(=N)N)C(N)=O)C(C)C)C(C)C)NC(=O)[C@H](CC(=O)O)NC(=O)[C@H](CC(C)C)NC1=O (single isomer, unassigned) [FP-0776, Ac-P-Q-R5-I-L-D-RdN-H-V-R-R-V-W-R-NH2]
1300	CC[C@H](C)[C@@H]1NC(=O)[C@@](C)(NC(=O)[C@H](CCC(N)=O)NC(=O)[C@@H]2CCCN2C(C)=O)CCN(C)C(=O)OCC=CCCC[C@@](C)(C(=O)N[C@@H](Cc2c[nH]cn2)C(=O)N[C@H](C(=O)N[C@@H](CCCNC(=N)N)C(=O)N[C@@H](CCCNC(=N)N)C(=O)N[C@H](C(=O)N[C@@H](Cc2c[nH]c3ccccc23)C(=O)N[C@@H](CCCNC(=N)N)C(N)=O)C(C)C)C(C)C)NC(=O)[C@H](CC(=O)O)NC(=O)[C@H](CC(C)C)NC1=O (single isomer, unassigned) [FP-0779c, Ac-P-Q-SdN-I-L-D-S5-H-V-R-R-V-W-R-NH2]
1400	CC[C@H](C)[C@@H]1NC(=O)[C@](C)(NC(=O)[C@H](CCC(N)=O)NC(=O)[C@@H]2CCCN2C(C)=O)CCCN(C)CC=CCCC[C@](C)(C(=O)N[C@@H](Cc2c[nH]cn2)C(=O)N[C@H](C(=O)N[C@@H](CCCNC(=N)N)C(=O)N[C@@H](CCCNC(=N)N)C(=O)N[C@H](C(=O)N[C@@H](Cc2c[nH]c3ccccc23)C(=O)N[C@@H](CCCNC(=N)N)C(N)=O)C(C)C)C(C)C)NC(=O)[C@H](CC(=O)O)NC(=O)[C@H](CC(C)C)NC1=O (single isomer, unassigned) [FP-0783, Ac-P-Q-ReN-I-L-D-R5-H-V-R-R-V-W-R-NH2]
